Assay results taken from PubChem BioAssay (NCI).
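Exposure lasted 48 hours, with cells grown in 96-well plates and compounds tested at five concentrations. TGI is the concentration that stops growth completely.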

Columns and labels:
Assay in all cases: DTP human tumour cell line panel, 48 h
LOX IMVI melanoma = tested on: LOX IMVI melanoma
UACC-62 melanoma = tested on: UACC-62 melanoma
NCI-H460 lung = tested on: NCI-H460 lung
EKVX NSCLC = tested on: EKVX NSCLC
CCRF-CEM leukemia = tested on: CCRF-CEM leukemia
NCI-H23 lung = tested on: NCI-H23 lung
COLO 205 colon = tested on: COLO 205 colon
CAKI-1 renal = tested on: CAKI-1 renal
KM12 colon = tested on: KM12 colon
SW-620 colon = tested on: SW-620 colon

SMILES: N#Cc1[nH]c(=O)n(-c2ccc(Cl)cc2)c1N
- TGI (LOX IMVI melanoma): > 10 µM
- TGI (UACC-62 melanoma): > 10 µM
- TGI (NCI-H460 lung): > 10 µM
- TGI (EKVX NSCLC): > 10 µM
- TGI (CCRF-CEM leukemia): > 10 µM
- TGI (NCI-H23 lung): > 10 µM
- TGI (COLO 205 colon): > 10 µM
- TGI (CAKI-1 renal): > 10 µM
- TGI (KM12 colon): > 10 µM

SMILES: Cc1csc2nc(-c3ccc([N+](=O)[O-])cc3)c(/C=N/N=C(N)N)n12
- TGI (LOX IMVI melanoma): 3.63 µM
- TGI (UACC-62 melanoma): 3.17 µM
- TGI (NCI-H460 lung): 3.43 µM
- TGI (EKVX NSCLC): 2.73 µM
- TGI (CCRF-CEM leukemia): 4.11 µM
- TGI (NCI-H23 lung): 3.2 µM
- TGI (COLO 205 colon): 2.96 µM
- TGI (CAKI-1 renal): 12.6 µM
- TGI (KM12 colon): 3.49 µM

SMILES: CC1CCCC2=C1C(c1ccc(Cl)cc1)n1c(s/c(=C\c3ccc(Cl)cc3)c1=O)=N2 (centres undefined)
- TGI (LOX IMVI melanoma): > 100 µM
- TGI (UACC-62 melanoma): > 100 µM
- TGI (SW-620 colon): > 100 µM
- TGI (EKVX NSCLC): > 100 µM
- TGI (CCRF-CEM leukemia): > 100 µM
- TGI (COLO 205 colon): > 100 µM
- TGI (CAKI-1 renal): > 100 µM
- TGI (KM12 colon): > 100 µM

SMILES: CCOc1ccc2c(c1)/C(=C(\C(Cl)=C(Cl)Cl)[N+](=O)[O-])N2
- TGI (UACC-62 melanoma): > 100 µM
- TGI (SW-620 colon): > 100 µM
- TGI (NCI-H460 lung): > 100 µM
- TGI (EKVX NSCLC): > 100 µM
- TGI (CCRF-CEM leukemia): > 100 µM
- TGI (NCI-H23 lung): > 100 µM
- TGI (COLO 205 colon): > 100 µM
- TGI (CAKI-1 renal): > 100 µM
- TGI (KM12 colon): > 100 µM

SMILES: c1ccc(C2SCC3=Nc4ccccc4CN32)cc1 (centres undefined)
- TGI (LOX IMVI melanoma): > 100 µM
- TGI (UACC-62 melanoma): > 100 µM
- TGI (SW-620 colon): > 100 µM
- TGI (NCI-H460 lung): > 100 µM
- TGI (CCRF-CEM leukemia): > 100 µM
- TGI (NCI-H23 lung): 62.3 µM
- TGI (COLO 205 colon): > 100 µM
- TGI (CAKI-1 renal): > 100 µM
- TGI (KM12 colon): > 100 µM

SMILES: Cc1cc2[nH]c3c(C#N)c(-c4ccccc4)c(N=Nc4cccc(C(F)(F)F)c4)c(=O)n3c2cc1C
- TGI (LOX IMVI melanoma): > 100 µM
- TGI (SW-620 colon): > 100 µM
- TGI (NCI-H460 lung): > 100 µM
- TGI (EKVX NSCLC): > 100 µM
- TGI (CCRF-CEM leukemia): > 100 µM
- TGI (NCI-H23 lung): 93.4 µM
- TGI (COLO 205 colon): > 100 µM
- TGI (CAKI-1 renal): > 100 µM
- TGI (KM12 colon): > 100 µM

SMILES: O=C1c2ccccc2CC12Cc1cc3c(cc1C2=O)CCC3 (centres undefined)
- TGI (LOX IMVI melanoma): > 100 µM
- TGI (SW-620 colon): > 100 µM
- TGI (NCI-H460 lung): > 100 µM
- TGI (EKVX NSCLC): > 100 µM
- TGI (CCRF-CEM leukemia): > 100 µM
- TGI (NCI-H23 lung): > 100 µM
- TGI (CAKI-1 renal): > 100 µM

SMILES: O=C(N/N=C1\CCc2ccccc2C1)N/N=C1\CCc2ccccc2C1
- TGI (SW-620 colon): > 10 µM
- TGI (NCI-H460 lung): > 10 µM
- TGI (EKVX NSCLC): > 10 µM
- TGI (CCRF-CEM leukemia): > 10 µM
- TGI (NCI-H23 lung): > 10 µM
- TGI (COLO 205 colon): > 10 µM
- TGI (CAKI-1 renal): > 10 µM
- TGI (KM12 colon): > 10 µM

SMILES: O=C(O)CSCC(=O)Nc1ccc2cccc3c2c1CC3
- TGI (LOX IMVI melanoma): > 100 µM
- TGI (UACC-62 melanoma): > 100 µM
- TGI (SW-620 colon): > 100 µM
- TGI (EKVX NSCLC): > 100 µM
- TGI (CCRF-CEM leukemia): > 100 µM
- TGI (NCI-H23 lung): > 100 µM
- TGI (COLO 205 colon): > 100 µM
- TGI (CAKI-1 renal): > 100 µM
- TGI (KM12 colon): > 100 µM

SMILES: CC(=O)c1ccc(Oc2ccc(/C(C)=N\N=C(N)N)cc2)cc1
- TGI (LOX IMVI melanoma): 13.1 µM
- TGI (UACC-62 melanoma): 10.1 µM
- TGI (NCI-H460 lung): 10.5 µM
- TGI (EKVX NSCLC): 16.7 µM
- TGI (CCRF-CEM leukemia): 10.4 µM
- TGI (NCI-H23 lung): 12.8 µM
- TGI (COLO 205 colon): 3.26 µM

SMILES: CCP(=O)(CC)C(Cl)(Cl)C(O)C(C)(C)C (centres undefined)
- TGI (LOX IMVI melanoma): > 100 µM
- TGI (SW-620 colon): > 100 µM
- TGI (NCI-H460 lung): > 100 µM
- TGI (CCRF-CEM leukemia): > 100 µM
- TGI (NCI-H23 lung): > 100 µM
- TGI (COLO 205 colon): > 100 µM
- TGI (CAKI-1 renal): > 100 µM

SMILES: C/C(=N\Nc1ccc([N+](=O)[O-])cc1[N+](=O)[O-])c1ccc2ccccc2n1
- TGI (UACC-62 melanoma): > 100 µM
- TGI (SW-620 colon): > 100 µM
- TGI (NCI-H460 lung): > 100 µM
- TGI (EKVX NSCLC): > 100 µM
- TGI (NCI-H23 lung): > 100 µM
- TGI (COLO 205 colon): > 100 µM
- TGI (CAKI-1 renal): > 100 µM
- TGI (KM12 colon): > 100 µM
